Measured values published in article PMC9841524, “Structure-Based Rational Design of Small α-Helical Peptides with Broad-Spectrum Activity against Multidrug-Resistant Pathogens” (Journal of Medicinal Chemistry, 2022).
Where two headings read alike, the source gives them in different places. Where no end group is shown, it is not given here.

Tests used:
S. aureus (ATCC 29213) = experiment: MIC, standard microtiter dilution (CLSI); format: cell-based; conditions: broth microdilution (CLSI), CAMHB, 37 °C, 24 h
In short: (§1)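 Inoculum 10^6 CFU/mL in CAMHB against 2-fold peptide series; salt variants used 150 mM NaCl, 4.5 mM KCl, 6 mM NH4Cl, 1 mM MgCl2, 2 mM CaCl2, or 25% FBS.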

E. coli (ATCC 25922) = conditions: broth microdilution (CLSI), CAMHB, 37 °C, 24 h
In short: as §1

MRSA (ATCC BAA-1556) = conditions: broth microdilution (CLSI), CAMHB, 37 °C, 24 h
In short: as §1

[1] = system: P. aeruginosa (ATCC 27883); experiment: MIC, standard microtiter dilution (CLSI); format: cell-based, Pseudomonas aeruginosa; conditions: broth microdilution (CLSI), CAMHB, 37 °C, 24 h
In short: as §1

[2] = system: K. pneumoniae (ATCCBAA-1705); experiment: MIC, standard microtiter dilution (CLSI); format: cell-based, Klebsiella pneumoniae; conditions: broth microdilution (CLSI), CAMHB, 37 °C, 24 h
In short: as §1

[3] = system: human red blood cells (hRBCs); experiment: Hemolytic assay; format: cell-based; conditions: 2 h, 37 °C
In short: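 Peptides in 2-fold serial dilutions mixed 1:1 with 4% hRBC suspension in PBS and held 2 h at 37 °C unshaken. Hemoglobin release in supernatant read at 567 nm; % hemolysis scaled between PBS (0%) and 1% Triton X-100 (100%).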

[4] = CD spectroscopy, helicity; format: physicochemical; design: key to Δ[θ]222 induced by TFE / Δ[θ]222 induced by Liposomes: mean residue molar ellipticity, mdeg cm2/(dmol × res); conditions: for [θ]222 mean residue molar ellipticity, TFE / [θ]222 mean residue molar ellipticity, Liposomes / [θ]222 mean residue molar ellipticity, PBS: CD at 222 nm, 25 °C; for [θ]222 mean residue molar ellipticity, TFE: aqueous buffer containing 50% TFE; for [θ]222 mean residue molar ellipticity, Liposomes / Δ[θ]222 induced by Liposomes: bacterial membrane mimicking liposomes; for [θ]222 mean residue molar ellipticity, Liposomes: peptide:lipid molar ratio 1:1.05; for [θ]222 mean residue molar ellipticity, PBS: phosphate buffer saline pH 7.0; for Δ[θ]222 induced by TFE / Δ[θ]222 induced by Liposomes: difference to PBS; for Δ[θ]222 induced by TFE: 50% TFE; for % of helicity induced by TFE: increase in molar ellipticity at 222 nm in the presence of 50% TFE; for % of helicity induced by Liposomes: increase in molar ellipticity at 222 nm in the presence of liposomes;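 as to % of helicity induced by Liposomes: share of the total helicity with liposomes gained over the same peptide in PBS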;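 as to % of helicity induced by TFE: share of the total helicity in TFE gained over the same peptide in PBS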
Protocol: The CD spectra of peptides were recorded using a Jasco J-1500 CD spectrophotometer (Jasco, Easton, MD) at 25 °C with a 1 mm path length cell. Wavelengths from 190 to 260 nm were scanned with 1.0 nm step resolution, 100 nm/min speed, 0.4 s response time, and 1 nm bandwidth. CD spectra of the peptides were collected and averaged over three scans in 10 mM sodium phosphate buffer (pH 7.2), helix-inducing solvent 50% TFE (v/v), and bacterial mimic liposomes (75 μM lipid). Spectra were corrected by subtracting a baseline spectrum containing only buffer or 50% TFE or liposomes. The mean residue molar ellipticity was calculated using the formula [drawing 3] where Ab222 is the absorbance observed at 222 nm, MRW is the mean residue molecular weight, C is the concentration in mg/mL, and L is the path length.
Table S1. RP-HPLC retention times and CD spectroscopy analysis of the selected peptides Peptide tR (min)a [θ]222b Δ[θ]222 induced by % of helicity inducedc by PBS TFE Liposomes TFE Liposomes TFE Liposomes […]
atR (min) denotes the retention time at 25°C by RP-HPLC. bThe mean residue molar ellipticity [θ] 222 (mdeg cm2/(dmol × res)) at 222 nm was measured at 25 °C in phosphate buffer saline (PBS, pH 7.0), in aqueous buﬀer containing 50% TFE (TFE), or in presence of bacterial membrane mimicking liposomes (peptide:lipid […]
c% helix induced is the increase in the molar ellipticity at 222 nm (in percentage) of a peptide in the presence of TFE or liposomes.

[5] = 10^6 CFU/mL, highest MIC of three independent experiments in triplicate
[6] = hRBC suspension 4% in PBS, hemoglobin release at 567 nm, 1% Triton X-100 = 100%
[7] = value in parentheses (μM), hRBC 4% in PBS, 567 nm

| Substance | MIC, S. aureus (ATCC 29213) (S. aureus (ATCC 29213); [5]) | MIC, S. aureus (ATCC 29213) (S. aureus (ATCC 29213); value in parentheses (μM)) | MIC, E. coli (ATCC 25922) (E. coli (ATCC 25922); [5]) | MIC, E. coli (ATCC 25922) (E. coli (ATCC 25922); value in parentheses (μM)) | MIC, MRSA (ATCC BAA-1556) (MRSA (ATCC BAA-1556); [5]) | MIC, MRSA (ATCC BAA-1556) (MRSA (ATCC BAA-1556); value in parentheses (μM)) | MIC, P. aeruginosa (ATCC 27883) [1, 5] | MIC, P. aeruginosa (ATCC 27883) ([1]; value in parentheses (μM)) | MIC, K. pneumoniae (ATCCBAA-1705) [2, 5] | MIC, K. pneumoniae (ATCCBAA-1705) ([2]; value in parentheses (μM)) | HC50 (concentration at which 50% hemolysis was observed) [3, 6] | HC50 (concentration at which 50% hemolysis was observed) [3, 7] | [θ]222 mean residue molar ellipticity, TFE [4] | [θ]222 mean residue molar ellipticity, Liposomes [4] | [θ]222 mean residue molar ellipticity, PBS [4] | Δ[θ]222 induced by TFE [4] | Δ[θ]222 induced by Liposomes [4] | % of helicity induced by TFE [4] | % of helicity induced by Liposomes [4] |
| --- | --- | --- | --- | --- | --- | --- | --- | --- | --- | --- | --- | --- | --- | --- | --- | --- | --- | --- | --- |
| RAWRAWWRRA-NH2 [4f] | > 100 µg/mL | > 70.74 µM | > 100 µg/mL | > 70.74 µM | > 100 µg/mL | > 70.74 µM | > 100 µg/mL | > 70.74 µM | > 100 µg/mL | > 70.74 µM | > 500 µg/mL | > 353.69 µM | -7441 mdeg cm2/(dmol × res) | -4470 mdeg cm2/(dmol × res) | -3665 mdeg cm2/(dmol × res) | -3775 | -805 | 50.73% | 18.01% |
| RWLRRWLRWWR-NH2 [5d] | 25 µg/mL | 14.13 µM | 50 µg/mL | 28.26 µM | 25 µg/mL | 14.13 µM | 50 µg/mL | 28.26 µM | 50 µg/mL | 28.26 µM | 130 µg/mL | 73.48 µM | -10148 mdeg cm2/(dmol × res) | -5800 mdeg cm2/(dmol × res) | -4099 mdeg cm2/(dmol × res) | -6048 | -1700 | 59.60% | 29.31% |
| RWWRRWAR-NH2 [2a] | > 100 µg/mL | > 78.65 µM | > 100 µg/mL | > 78.65 µM | > 100 µg/mL | > 78.65 µM | > 100 µg/mL | > 78.65 µM | > 100 µg/mL | > 78.65 µM | > 500 µg/mL | > 393.23 µM | -6217 mdeg cm2/(dmol × res) | -4556 mdeg cm2/(dmol × res) | -4051 mdeg cm2/(dmol × res) | -2165 | -505 | 34.83% | 11.08% |
